These results are taken from ChEMBL document CHEMBL1201862, “PubChem BioAssay data set” (2004).

Calls of active or inactive are those of the source. Some results are limits rather than exact numbers.

The target of assay [1] is T1, Tyrosine-protein phosphatase non-receptor type 7 (Homo sapiens, UniProt P35236).
T1 sequence (P35236 whole entry): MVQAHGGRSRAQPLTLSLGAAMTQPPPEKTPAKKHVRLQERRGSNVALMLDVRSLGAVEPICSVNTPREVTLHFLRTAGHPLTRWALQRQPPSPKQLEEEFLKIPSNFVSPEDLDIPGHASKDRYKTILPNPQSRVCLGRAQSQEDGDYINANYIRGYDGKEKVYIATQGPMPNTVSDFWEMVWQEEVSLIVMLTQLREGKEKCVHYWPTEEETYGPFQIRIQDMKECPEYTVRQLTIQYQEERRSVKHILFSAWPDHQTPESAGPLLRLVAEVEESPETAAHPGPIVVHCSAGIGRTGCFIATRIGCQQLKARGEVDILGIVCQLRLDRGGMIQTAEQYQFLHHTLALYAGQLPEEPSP
The assay is described as follows: HePTP tyrosine phosphatase activity blockers – biochemical, absorbance, leukemia target, primary screen (AID 521). Format: functional.

Another assay deals with T2, Cytochrome P450 1A2 (Homo sapiens, UniProt P05177).
T2 sequence (P05177 whole entry): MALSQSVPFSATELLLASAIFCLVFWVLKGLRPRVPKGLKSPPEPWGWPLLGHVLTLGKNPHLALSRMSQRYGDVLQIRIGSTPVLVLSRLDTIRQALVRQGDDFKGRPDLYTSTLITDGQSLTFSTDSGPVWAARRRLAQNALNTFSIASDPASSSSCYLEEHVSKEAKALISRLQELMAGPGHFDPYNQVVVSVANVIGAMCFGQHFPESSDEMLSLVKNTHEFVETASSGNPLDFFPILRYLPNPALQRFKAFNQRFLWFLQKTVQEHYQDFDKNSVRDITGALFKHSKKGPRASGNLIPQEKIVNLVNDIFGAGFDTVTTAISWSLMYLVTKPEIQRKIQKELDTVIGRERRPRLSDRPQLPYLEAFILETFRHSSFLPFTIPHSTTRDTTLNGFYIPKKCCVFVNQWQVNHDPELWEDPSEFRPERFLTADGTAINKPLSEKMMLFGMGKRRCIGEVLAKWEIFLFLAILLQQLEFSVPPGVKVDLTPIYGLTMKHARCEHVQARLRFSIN

Assay [2] in a line: activation of miR-122 Renilla sensor silencing – cell-based, Huh7 psiCHECK-miR122, Renilla luciferase, cherry-picked, dose response (AID 651956).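 Also: huh7 hepatoma cells stably carrying a psiCHECK-2 miR-122 sensor plasmid; renilla luciferase signal reporting endogenous miR-122 activity after 48 h compound exposure.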 The format is functional.
Assay [3] in a line: lung carcinoma cell viability loss – CellTiter-Glo luminescence, dry powder, set 17, dose response (AID 1117284). The format is functional, cell-based. Particulars: A549. In general terms: In ATP-based viability assays light output follows the ATP content of the culture.
In the next assay the target is Paired box protein Pax-8 (Homo sapiens, UniProt Q06710). The assay is described as follows: PAX8 transcriptional activity inhibition in RMG-I – RMG-I cells, luciferase, cherry-pick, dose response (AID 687027).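 Also: luciferase reporter driven by Pax8 target thyroperoxidase promoter measured by SteadyGlo luminescence.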 The format is functional, cell-based.
Assay [4] is described as follows: PAX5 cellular inhibition readout – cell-based, plate reader, dry powder samples, selectivity assay for PAX8 inhibitor project, dose response (AID 743047).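 Also: HEK293 cells carrying a Pax5 driven CD19 promoter luciferase reporter; potency of inhibitors that lower reporter luminescence.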 Format: functional.
Assay [5] is described as follows: viability loss in A549 lung cells – cell-based, 24 h, CellTiter-Glo luminescence, cherry-picks, cytotoxicity control, dose response (AID 1053115). To be noted: A549, 24 h. Format: functional.
A short description of assay [6]: general mammalian cell viability loss – inhibitor set, cherry-pick, set 2, cytotoxicity control for miR-122 modulator project, dose response (AID 720697). Format: functional, cell-based.
Assay [7] in a line: PAX8-dependent cell viability loss – plate reader, dry powder, dose response (AID 743049). Format: functional, cell-based.
The nature of assay [8]: inhibitors acting on PAX2 in cells – cell-based, plate reader, dry powder samples, selectivity assay for PAX8 inhibitor project, dose response (AID 743048).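 Also: HEK293 cells carrying a WT1 promoter luciferase reporter driven by expressed Pax2; potency is for inhibition of Pax2 driven reporter signal.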 The format is functional.
Assay [9] can be described thus: cytotoxicity in HEK293 background cells – cell-based, dry powder, set 2, counter-screen for EBV LMP1 inhibitor project, dose response (AID 624374). Format: functional. In general terms: The purpose of a counterscreen is to sort out artefacts and off-target activity.
The nature of assay [10]: OV-90 cell viability loss – plate reader, dry powder, SA8, PAX8 inhibitor project, dose response (AID 743149). Format: functional, cell-based.
Assay [11] in a line: general cell-killing toxicity readout – plate reader, dry powder samples, cytotoxicity control for PAX8 inhibitor project, dose response (AID 743021). The format is functional, cell-based.
Assay [12] in a line: toxicity to human hepatoma HepG2 cells – cell-based, cherry-picked samples, cytotoxicity control, dose response (AID 1159577). Format: functional.
Assay [13] is described as follows: OVCAR8 cell viability loss – plate reader, dry powder samples, PAX8 project, dose response (AID 743197). Format: functional, cell-based. Particulars: OVCAR-8.
Assay [14] can be described thus: OVCAR-3 cell viability loss – plate reader, dry powder samples, PAX8 inhibitor project, dose response (AID 743044). Format: functional, cell-based.
A short description of assay [15]: P. falciparum Dd2 growth inhibitors, dose response, SYBR Green, cherry-picked samples (AID 1159567). The format is functional, cell-based.
Assay [16] can be described thus: toxicity to human HepG2 hepatoma cells – cell-based, plate reader, dry powder samples, cytotoxicity control, dose response (AID 1159569).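 Also: inhibitor potency with signal falling toward the positive control level.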 Format: functional.
Assay [17] in a line: growth inhibition of PfATP4-mutant resistant parasites – NITD609-resistant line, SYBR Green, dry powder, dose response (AID 1159571).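 Also: parasites synchronized at ring stage by sorbitol before testing.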 Format: functional, cell-based.
The nature of assay [18]: Dd2 malaria parasite growth inhibition potency – SYBR Green, dry powder samples, dose response (AID 1159566).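 Also: potency for growth inhibition with lower SYBR green DNA signal.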 Format: functional, cell-based.
Assay [19] is described as follows: growth inhibition of yeast DHODH-expressing 3D7 parasites – SYBR Green, dry powder samples, dose response (AID 1159570).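 Also: parasite growth measured after 72 hours of compound exposure.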 The format is functional, cell-based.
Assay [20] is described as follows: glucagon-like peptide-1 release potency in STC-1, concentration-response, half-maximal inhibitory concentration in the STC-1 line (AID 1117345). Format: functional, cell-based.
Assay [21] is described as follows: IC50 of insulin release inhibition, rat insulinoma INS-1E line, 5 mM glucose, cell-based (AID 1117331). Format: functional.
The nature of assay [22]: SNU-C1 cell viability reduction, dose response, CellTiter-Glo luminescence (AID 1117323). Format: functional, cell-based.
Assay [23] is described as follows: HCT116 cell viability decrease, GSK3B pretreatment – CellTiter-Glo, IC50, dose response (AID 1117339). Format: functional. To be noted: HCT-116.
Assay [24] in a line: CellTiter-Glo luminescence survival assay, SW480 colon tumor line, concentration-response curve, half-maximal inhibitory concentration (AID 1117338). Format: functional.
Assay [25] can be described thus: cytotoxicity toward HCT116 cells – cell-based, CellTiter-Glo luminescence, IC50, dose response (AID 1117332). The format is functional. To be noted: HCT-116.
Assay [26] in a line: rise of 2N DNA cells, HeLa – IC50, dose response (AID 1117349). The format is functional, cell-based.
Assay [27] is described as follows: cytotoxicity toward Colo320 cells – cell-based, CellTiter-Glo luminescence, IC50, dose response (AID 1117334). Particulars: COLO 320. The format is functional.
The nature of assay [28]: Potency on glucagon-like peptide 1 release, dose-response in NCI-H716 cell line, half maximal inhibitory concentration (AID 1117344). Format: functional, cell-based.
A short description of assay [29]: rise of 4N DNA cells, HeLa – IC50, dose response (AID 1117351). Format: functional, cell-based.
Assay [30] can be described thus: Reduced DLD-1 viability, concentration-response, CellTiter-Glo luminescence (AID 1117352). The format is functional.
A short description of assay [31]: RKO cell viability reduction, dose response, CellTiter-Glo luminescence (AID 1117322). The format is functional.
Assay [32] is described as follows: cytotoxicity toward HT-29 cells – cell-based, CellTiter-Glo luminescence, IC50, dose response (AID 1117330). Format: functional.
The target of assay [33] is T3, Low molecular weight phosphotyrosine protein phosphatase (Homo sapiens, UniProt P24666). The assay is described as follows: inhibition of human LMPTP enzyme activity – biochemical, absorbance, pNPP substrate, LMPTP-A isoform, set 2, orthogonal assay, dose response (AID 743308). Format: functional.
In assay [34] the target is T3, Low molecular weight phosphotyrosine protein phosphatase. The assay is described as follows: inhibition of LMPTP-A enzymatic activity – biochemical, OMFP substrate, fluorescence intensity, set 2, dose response (AID 743307). Format: functional.

T3 sequence (P24666 whole entry, canonical isoform): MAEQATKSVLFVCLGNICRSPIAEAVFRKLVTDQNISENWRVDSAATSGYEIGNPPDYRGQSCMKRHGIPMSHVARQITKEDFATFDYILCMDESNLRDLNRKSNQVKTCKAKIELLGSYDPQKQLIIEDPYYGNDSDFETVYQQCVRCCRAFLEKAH
Chain of Paired box protein Pax-8 (Q06710 whole entry): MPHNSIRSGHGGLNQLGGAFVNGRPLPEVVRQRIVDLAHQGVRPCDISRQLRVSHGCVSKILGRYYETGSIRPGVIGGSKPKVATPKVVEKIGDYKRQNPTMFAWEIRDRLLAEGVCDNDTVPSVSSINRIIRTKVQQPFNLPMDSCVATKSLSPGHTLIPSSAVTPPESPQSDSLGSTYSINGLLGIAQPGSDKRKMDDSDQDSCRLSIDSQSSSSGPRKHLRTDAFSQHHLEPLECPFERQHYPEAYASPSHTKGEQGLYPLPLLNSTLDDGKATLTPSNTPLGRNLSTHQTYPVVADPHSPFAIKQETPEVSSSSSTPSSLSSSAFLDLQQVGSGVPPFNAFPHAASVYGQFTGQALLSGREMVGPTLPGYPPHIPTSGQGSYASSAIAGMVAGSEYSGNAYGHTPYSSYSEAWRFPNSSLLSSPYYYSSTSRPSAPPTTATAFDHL

The term IC50 denotes the midpoint of a concentration-inhibition curve. By AC50 is commonly meant the concentration at which the activity in the assay is half-maximal. `Cc1c(NC(=O)CN2C(=O)C3C4C=CC(C4)C3C2=O)c(=O)n(-c2ccccc2)n1C` (configuration not stated): in assay [1], the IC50 is on record as > 100 µM (not active). Moreover, the AC50 at Cytochrome P450 1A2 was 39.8 µM (inconclusive).
Turning to `C[C@@H]1CN([C@@H](C)CO)S(=O)(=O)c2ccc(C#C[C@@H](C)O)cc2O[C@H]1CN(C)Cc1ccc(-c2ccccc2)cc1`, the AC50 was 20.3 µM (active) in assay [2]; 46.1 µM (active) in assay [3]; 6.61 µM (active) at Paired box protein Pax-8; 41.3 µM (active) in [4]; 53.4 µM (active) in [5]; 8.22 µM (active) in [6]. Besides, the AC50 was > 70 µM (inactive) in [7], > 70 µM (inactive) in assay [8] and 17.7 µM (active) in assay [10]. Moreover, the AbsAC35 in [9] was 211.64 µM.
With `Cc1cccc(-c2ccc([C@H]3[C@H]4CN(S(=O)(=O)c5cccc(C)c5)CCCCN4[C@H]3CO)cc2)c1`, the AC50 was 67.1 µM (active) in assay [11]; > 39 µM (inactive) in assay [12]; 44.6 µM (active) in assay [13]; 43.5 µM (active) in assay [14]; 7.45 µM (active) on Paired box protein Pax-8; 2.62 µM (active) in assay [15]. Further, the AC50 was > 100 µM (inactive) in assay [16], 1.42 µM (active) in assay [17], 1.19 µM (active) in assay [18] and 2.07 µM (active) in assay [19].
For `CN1CCCC(CC2c3ccccc3Sc3ccccc32)C1` (configuration not stated), the IC50 in assay [20] was > 40 µM (inactive); in assay [21], > 11.1 µM (inactive); in [22], 15.1 µM (inactive); in [23] it was 8.68 µM (inactive); in [24] it was 4.7 µM (active); in assay [25] it was > 20 µM (inactive). In addition, the IC50 is > 10 µM (inactive) in [26]; > 20 µM (inactive) in assay [27]; > 40 µM (inactive) in assay [28]; > 10 µM (inactive) in [29]; > 20 µM (inactive) in [30]; 3.49 µM (active) in assay [31]. In addition, the IC50 in [32] was 6.43 µM (inactive).
For the compound `Fc1ccc(-c2cc(NCCCN3CCCCC3)c3ccccc3n2)cc1`, the IC50 is 3.27 µM (active) in assay [33] and 1.4 µM (active) in assay [34].
